Data on 4 molecules can be found in article PMC8391922, “The Combined Effect of Branching and Elongation on the Bioactivity Profile of Phytocannabinoids. Part I: Thermo-TRPs” (Biomedicines, 2021).

For assay [1], the target named is T1, rat TRPA1 (Rattus norvegicus, UniProt Q6RI86).
T1 construct: expressed in transfected cells; host or cells: HEK-293
Description: TRPA1-mediated elevation of intracellular Ca2+ (Fluo-4) in transfected HEK-293 cells. It is filed as cell-based. Here is the method: (§1) Assays of rat TRPA1, TRPV2, TRPV3, TRPV4, and TRPM8 or human TRPV1 mediated elevation of intracellular Ca ^2+ in transfected HEK-293 cells were performed with a continuous monitoring of [Ca ^2+]i during the experiments. […] Cell fluorescence before and after the addition of various concentrations of test compounds was measured, normalizing the effects against the response to ionomycin (IM, 4 μM). The values of the effect on [Ca^2+]i in HEK-293 cells not transfected were used as baseline and subtracted from the values obtained from transfected cells. For TRPA1, agonist efficacy was expressed as a percentage of the effect on [Ca ^2+]i observed with 100 μM allylisothiocyanate. […] In the TRPV3 assay, TRPV3-expressing HEK293 cells were first sensitized with the structurally unrelated agonist 2-aminoethoxydiphenyl borate (100 μM). Antagonist/desensitizing behavior is evaluated against the agonist of the TRP analyzed by adding the compounds directly in the quartz cuvette 5 min before stimulation of cells with the agonist. […] Dose-response curve fitting (sigmoidal dose-response variable slope) and parameter estimation were performed with Graph-Pad Prism8 (GraphPad Software Inc., San Diego, CA, USA). All determinations were performed at least in triplicate.

For assay [2], the target named is T2, human TRPV1 (Homo sapiens, UniProt Q8NER1).
T2 construct: expressed in transfected cells; host or cells: HEK-293
T2 sequence (Q8NER1 whole entry): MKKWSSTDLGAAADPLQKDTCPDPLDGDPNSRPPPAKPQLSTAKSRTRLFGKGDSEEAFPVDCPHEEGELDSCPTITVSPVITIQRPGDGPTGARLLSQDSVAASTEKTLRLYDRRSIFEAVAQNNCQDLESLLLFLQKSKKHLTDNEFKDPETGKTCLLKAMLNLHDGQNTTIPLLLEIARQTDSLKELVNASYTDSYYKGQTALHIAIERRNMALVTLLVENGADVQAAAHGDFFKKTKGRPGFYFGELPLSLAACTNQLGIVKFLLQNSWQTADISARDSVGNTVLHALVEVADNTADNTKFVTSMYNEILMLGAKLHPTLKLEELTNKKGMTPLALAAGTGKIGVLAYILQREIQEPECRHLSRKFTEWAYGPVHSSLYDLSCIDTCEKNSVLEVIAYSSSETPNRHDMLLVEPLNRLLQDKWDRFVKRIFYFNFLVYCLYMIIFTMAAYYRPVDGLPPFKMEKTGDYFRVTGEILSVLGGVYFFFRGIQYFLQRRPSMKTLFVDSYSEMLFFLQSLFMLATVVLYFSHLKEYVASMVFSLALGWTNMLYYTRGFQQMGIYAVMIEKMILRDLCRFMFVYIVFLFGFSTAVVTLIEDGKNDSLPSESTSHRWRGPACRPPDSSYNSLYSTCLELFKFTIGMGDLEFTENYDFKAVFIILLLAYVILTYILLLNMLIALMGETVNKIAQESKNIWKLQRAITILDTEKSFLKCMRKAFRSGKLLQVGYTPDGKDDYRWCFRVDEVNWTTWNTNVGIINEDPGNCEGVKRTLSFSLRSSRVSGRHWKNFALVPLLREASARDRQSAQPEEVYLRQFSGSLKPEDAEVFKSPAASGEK
The experiment in a line: TRPV1-mediated elevation of intracellular Ca2+ (Fluo-4) in transfected HEK-293 cells. It is filed as cell-based. On the procedure:
as §1

The target in the next assay is T3, rat TRPM8 (Rattus norvegicus, UniProt Q8R455).
T3 construct: expressed in transfected cells; host or cells: HEK-293
T3 sequence (Q8R455 whole entry): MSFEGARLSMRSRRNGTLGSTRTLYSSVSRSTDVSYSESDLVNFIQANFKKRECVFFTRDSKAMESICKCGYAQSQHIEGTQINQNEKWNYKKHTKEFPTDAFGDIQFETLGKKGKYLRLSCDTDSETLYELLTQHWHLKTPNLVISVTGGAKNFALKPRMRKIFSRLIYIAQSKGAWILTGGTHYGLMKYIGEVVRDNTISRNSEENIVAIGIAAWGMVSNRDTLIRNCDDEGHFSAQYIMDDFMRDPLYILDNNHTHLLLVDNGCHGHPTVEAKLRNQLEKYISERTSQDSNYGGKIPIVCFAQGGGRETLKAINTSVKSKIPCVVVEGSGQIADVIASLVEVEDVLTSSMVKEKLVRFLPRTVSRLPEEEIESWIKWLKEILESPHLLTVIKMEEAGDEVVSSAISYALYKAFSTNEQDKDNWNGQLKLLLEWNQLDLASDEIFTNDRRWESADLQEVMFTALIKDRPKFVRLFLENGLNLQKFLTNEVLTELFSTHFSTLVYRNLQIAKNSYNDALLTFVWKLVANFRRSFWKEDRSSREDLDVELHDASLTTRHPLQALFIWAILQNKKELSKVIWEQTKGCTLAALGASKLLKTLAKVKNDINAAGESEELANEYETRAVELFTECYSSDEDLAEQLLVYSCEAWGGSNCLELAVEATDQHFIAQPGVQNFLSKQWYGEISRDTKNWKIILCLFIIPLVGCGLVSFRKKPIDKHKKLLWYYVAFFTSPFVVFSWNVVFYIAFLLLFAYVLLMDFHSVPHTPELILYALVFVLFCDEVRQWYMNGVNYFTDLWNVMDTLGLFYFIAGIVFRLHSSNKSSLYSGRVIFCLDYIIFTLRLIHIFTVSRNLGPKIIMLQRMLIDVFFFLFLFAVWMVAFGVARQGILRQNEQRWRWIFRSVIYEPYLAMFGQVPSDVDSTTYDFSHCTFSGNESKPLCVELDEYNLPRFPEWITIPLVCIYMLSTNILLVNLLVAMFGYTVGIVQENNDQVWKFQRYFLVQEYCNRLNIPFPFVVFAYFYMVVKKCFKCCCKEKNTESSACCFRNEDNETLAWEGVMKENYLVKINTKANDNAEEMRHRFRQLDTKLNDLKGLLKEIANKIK
Description: TRPM8 antagonism of icilin-induced intracellular Ca2+ elevation (Fluo-4) in transfected HEK-293 cells. Format: cell-based. The conditions noted are these: IC50 TRPM8, antagonist; compound added 5 min before agonist icilin 0.25 μM. On the procedure: as §1

The target in assay [3] is T1, rat TRPA1. Also on record: method as in PMID 21175579. The conditions noted are these: cited from earlier work; for TRPA1 Efficacy (%ITC 100 μM): percentage of the effect of 100 μM allylisothiocyanate; for IC50: read-out: IC50 TRPA1, against agonist AITC 100 μM.
Assay [4] deals with T2, human TRPV1. Also on record: method as in PMID 21175579. The conditions noted are these: cited from earlier work; for IC50 TRPV1 / IC50: against agonist capsaicin 0.1 μM; for TRPV1 Efficacy (% IM 4 μM): percentage of the response to ionomycin 4 μM; for IC50: read-out: IC50 TRPV1.
For the next assay, the target named is T4, rat TRPV2 (Rattus norvegicus, UniProt Q9WUD2).
T4 construct: expressed in transfected cells; host or cells: HEK-293
T4 sequence (Q9WUD2 1-761): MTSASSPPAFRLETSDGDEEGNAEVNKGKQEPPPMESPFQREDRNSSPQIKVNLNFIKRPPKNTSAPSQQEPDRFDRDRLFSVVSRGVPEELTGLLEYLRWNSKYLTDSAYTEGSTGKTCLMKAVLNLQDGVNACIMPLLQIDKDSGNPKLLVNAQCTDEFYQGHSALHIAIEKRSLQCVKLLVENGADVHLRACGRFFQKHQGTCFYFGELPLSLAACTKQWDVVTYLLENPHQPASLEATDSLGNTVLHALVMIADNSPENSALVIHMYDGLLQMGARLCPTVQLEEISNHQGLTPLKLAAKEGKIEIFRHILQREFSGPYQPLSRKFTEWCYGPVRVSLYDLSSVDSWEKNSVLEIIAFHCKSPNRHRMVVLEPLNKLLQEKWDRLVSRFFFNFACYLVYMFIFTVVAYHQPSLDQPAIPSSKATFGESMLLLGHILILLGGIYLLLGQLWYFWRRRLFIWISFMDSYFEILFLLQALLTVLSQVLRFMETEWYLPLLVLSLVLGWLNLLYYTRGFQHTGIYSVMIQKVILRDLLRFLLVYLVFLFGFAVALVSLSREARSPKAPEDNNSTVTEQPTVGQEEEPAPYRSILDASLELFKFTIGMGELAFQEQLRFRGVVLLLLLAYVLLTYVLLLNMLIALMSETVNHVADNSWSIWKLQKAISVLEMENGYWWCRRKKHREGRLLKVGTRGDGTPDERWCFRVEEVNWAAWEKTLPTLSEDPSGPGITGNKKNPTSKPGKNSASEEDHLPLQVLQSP
Details: method as in PMID 21175579, PMID 21726418. The conditions noted are these: cited from earlier work; for TRPV2 Efficacy (% IM 4 μM): percentage of the response to ionomycin 4 μM.

The target in the next assay is T5, rat TRPV3 (Rattus norvegicus, UniProt Q4QYD9).
T5 construct: expressed in transfected cells; host or cells: HEK-293
T5 sequence (Q4QYD9 1-791): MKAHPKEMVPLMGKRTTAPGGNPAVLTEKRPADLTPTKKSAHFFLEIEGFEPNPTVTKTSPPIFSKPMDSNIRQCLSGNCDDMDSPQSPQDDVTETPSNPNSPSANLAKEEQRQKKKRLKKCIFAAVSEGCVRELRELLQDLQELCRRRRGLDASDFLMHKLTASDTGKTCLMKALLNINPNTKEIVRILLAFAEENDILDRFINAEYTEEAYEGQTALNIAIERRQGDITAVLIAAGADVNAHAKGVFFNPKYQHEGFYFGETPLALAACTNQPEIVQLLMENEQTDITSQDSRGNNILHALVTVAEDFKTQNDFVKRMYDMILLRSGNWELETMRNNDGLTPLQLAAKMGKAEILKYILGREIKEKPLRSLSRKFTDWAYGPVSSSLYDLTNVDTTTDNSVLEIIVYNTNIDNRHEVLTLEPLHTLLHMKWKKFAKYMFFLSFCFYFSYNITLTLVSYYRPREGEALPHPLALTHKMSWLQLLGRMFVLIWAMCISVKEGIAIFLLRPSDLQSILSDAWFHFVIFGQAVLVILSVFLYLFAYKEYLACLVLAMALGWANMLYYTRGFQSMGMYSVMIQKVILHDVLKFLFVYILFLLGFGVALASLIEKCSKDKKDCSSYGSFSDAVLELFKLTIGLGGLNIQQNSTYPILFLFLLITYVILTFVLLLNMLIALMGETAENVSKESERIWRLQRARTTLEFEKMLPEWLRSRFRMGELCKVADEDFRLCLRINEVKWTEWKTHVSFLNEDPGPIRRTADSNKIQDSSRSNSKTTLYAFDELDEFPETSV
Also on record: method as in PMID 21175579, PMID 21726418. Particulars: cited from earlier work; for IC50: read-out: IC50 TRPV3; for EC50: half-maximal increase in [Ca2+]i; for TRPV3 Efficacy (% IM 4 μM): percentage of the response to ionomycin 4 μM.

For the next assay, the target named is T6, rat TRPV4 (Rattus norvegicus, UniProt Q9ERZ8).
T6 construct: expressed in transfected cells; host or cells: HEK-293
T6 sequence (Q9ERZ8 whole entry): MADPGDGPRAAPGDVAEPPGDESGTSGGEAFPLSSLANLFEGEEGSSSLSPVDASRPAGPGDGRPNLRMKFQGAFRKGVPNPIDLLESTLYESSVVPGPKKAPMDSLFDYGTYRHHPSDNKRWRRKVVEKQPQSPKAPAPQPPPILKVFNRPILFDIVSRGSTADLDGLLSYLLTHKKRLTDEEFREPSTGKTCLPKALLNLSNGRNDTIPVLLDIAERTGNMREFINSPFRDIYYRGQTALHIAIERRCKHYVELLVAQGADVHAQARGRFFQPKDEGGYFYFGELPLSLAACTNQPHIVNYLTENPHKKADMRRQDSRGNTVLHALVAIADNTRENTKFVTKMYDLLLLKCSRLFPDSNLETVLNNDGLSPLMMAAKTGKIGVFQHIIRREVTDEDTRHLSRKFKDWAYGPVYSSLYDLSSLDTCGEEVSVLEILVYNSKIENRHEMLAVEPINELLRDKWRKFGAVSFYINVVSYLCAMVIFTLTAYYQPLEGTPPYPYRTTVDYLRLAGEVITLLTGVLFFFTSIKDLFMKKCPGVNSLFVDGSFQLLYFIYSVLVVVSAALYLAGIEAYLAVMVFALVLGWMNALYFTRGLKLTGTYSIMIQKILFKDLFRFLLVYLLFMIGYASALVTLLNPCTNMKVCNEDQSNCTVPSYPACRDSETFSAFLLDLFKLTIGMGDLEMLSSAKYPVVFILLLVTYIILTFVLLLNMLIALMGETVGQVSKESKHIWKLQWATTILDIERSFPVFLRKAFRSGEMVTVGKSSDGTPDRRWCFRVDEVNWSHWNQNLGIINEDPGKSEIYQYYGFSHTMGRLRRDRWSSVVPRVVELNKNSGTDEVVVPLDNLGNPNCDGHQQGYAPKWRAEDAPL
Also on record: method as in PMID 21175579, PMID 21726418. The conditions noted are these: cited from earlier work; for TRPV4 Efficacy (% IM 4 μM): percentage of the response to ionomycin 4 μM; for IC50: read-out: IC50 TRPV4; for EC50: read-out: TRPV4 Potency EC50, half-maximal increase in [Ca2+]i.

Structures are written as SMILES. Like-named read-outs stand apart in the source and are kept apart here.

T1 sequence (Q6RI86 whole entry): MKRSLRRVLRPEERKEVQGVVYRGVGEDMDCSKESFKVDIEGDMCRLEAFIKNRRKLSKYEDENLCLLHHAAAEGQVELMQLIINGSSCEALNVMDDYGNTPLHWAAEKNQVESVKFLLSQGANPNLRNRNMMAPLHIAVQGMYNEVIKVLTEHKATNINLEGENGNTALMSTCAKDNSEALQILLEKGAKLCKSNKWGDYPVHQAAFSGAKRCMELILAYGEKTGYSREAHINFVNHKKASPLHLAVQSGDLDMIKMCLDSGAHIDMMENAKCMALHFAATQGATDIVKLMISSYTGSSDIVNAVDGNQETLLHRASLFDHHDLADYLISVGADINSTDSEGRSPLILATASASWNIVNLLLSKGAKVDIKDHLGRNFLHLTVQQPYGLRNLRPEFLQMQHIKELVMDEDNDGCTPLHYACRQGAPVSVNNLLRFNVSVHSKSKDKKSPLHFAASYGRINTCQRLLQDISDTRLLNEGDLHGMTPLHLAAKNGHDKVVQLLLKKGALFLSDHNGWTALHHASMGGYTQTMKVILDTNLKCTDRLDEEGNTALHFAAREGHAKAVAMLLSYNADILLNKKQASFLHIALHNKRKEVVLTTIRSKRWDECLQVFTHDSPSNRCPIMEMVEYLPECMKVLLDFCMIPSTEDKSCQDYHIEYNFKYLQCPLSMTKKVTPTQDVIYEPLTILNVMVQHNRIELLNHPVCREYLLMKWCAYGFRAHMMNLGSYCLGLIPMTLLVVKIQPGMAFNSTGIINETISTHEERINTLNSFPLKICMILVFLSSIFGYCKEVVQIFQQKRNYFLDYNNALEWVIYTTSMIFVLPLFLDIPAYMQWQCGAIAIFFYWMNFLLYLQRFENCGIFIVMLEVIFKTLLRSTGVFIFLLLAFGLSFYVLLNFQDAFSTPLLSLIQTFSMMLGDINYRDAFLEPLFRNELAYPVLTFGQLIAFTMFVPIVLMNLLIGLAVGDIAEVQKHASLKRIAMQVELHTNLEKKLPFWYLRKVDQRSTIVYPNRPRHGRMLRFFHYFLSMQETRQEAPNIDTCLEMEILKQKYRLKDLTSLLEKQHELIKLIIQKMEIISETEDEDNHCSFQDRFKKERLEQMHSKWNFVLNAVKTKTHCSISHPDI

Turning to `CCCCCCC(C)(C)c1cc(O)c2c(c1)OC(C)(C)c1ccc(C)cc1-2` [9b, Depentyl-α,α-dimethylheptyl-cannabinol], a half-maximal response at rat TRPA1 [1] (EC50) required 2100 ± 900 nM. Also, the IC50 – broadly, the concentration that gives 50% inhibition – is 3200 ± 600 nM against rat TRPA1 [1], over 100000 nM against human TRPV1 [2] and 980 ± 120 nM at rat TRPM8. Further, the “TRPA1 Efficacy (%ITC 100 μM)” value on rat TRPA1 [1] (percentage of the effect of 100 μM allylisothiocyanate on [Ca2+]i, HEK-293) came to 132.3 ± 7.9%. On human TRPV1 [2] (percentage of the response to ionomycin 4 μM, HEK-293), the “TRPV1 Efficacy (% IM 4 μM)” value was <10 <10%.
Take `CCCCCc1cc(O)c(C/C=C(\C)CCC=C(C)C)c(O)c1` [7a, cannabigerol]: the “TRPA1 Efficacy (%ITC 100 μM)” value at rat TRPA1 [3] is 99.9 ± 1.1%. The “IC50 TRPV1” value on human TRPV1 [4] is “sub/low micromolar range”. The “TRPV1 Efficacy (% IM 4 μM)” value at human TRPV1 [4] is listed as 33.8 ± 2.3%. In addition, the “TRPV2 Efficacy (% IM 4 μM)” value at rat TRPV2 is given as 73.6 ± 1.2%. The IC50 is over 50000 nM on rat TRPV3 (against agonist thymol 100 μM) and 1300 nM at rat TRPV4 (against agonist GSK1016790A 10 nM). The EC50 (usually the concentration that produces a half-maximal response) is 1000 nM at rat TRPV3 (read-out: TRPV3 Potency EC50 (converted)) and 5100 nM on rat TRPV4. Further, at rat TRPV3, the “TRPV3 Efficacy (% IM 4 μM)” value is recorded as 18.5 ± 0.7%. In addition, the “TRPV4 Efficacy (% IM 4 μM)” value at rat TRPV4 is on record as 23.7 ± 1.8%.
Take `CCCCCc1cc(O)c2c(c1)OC(C)(C)c1ccc(C)cc1-2` [9a, cannabinol]: on rat TRPA1 [3], the “TRPA1 Efficacy (%ITC 100 μM)” value was 83.3 ± 12.0% and the IC50 was 400 nM. In addition, on human TRPV1 [4], the “TRPV1 Efficacy (% IM 4 μM)” value is <10 <10% and the IC50 is over 50000 nM.
In the case of `C=C(C)[C@@H]1CCC(C)=C[C@H]1c1c(O)cc(CCCCC)cc1O` [1a, cannabidiol], the “TRPA1 Efficacy (%ITC 100 μM)” value at rat TRPA1 [3] is 115.9 ± 4.6%. The IC50 at rat TRPA1 [3] was 160 nM; on human TRPV1 [4] it was 600 nM; on rat TRPV2 (read-out: IC50 TRPV2, against agonist LPC 3 μM) it was 4500 nM; on rat TRPV3 (against agonist carvacrol 1 mM) it was 900 nM; at rat TRPV4 (against agonist 4αPDD 1 μM), 1100 nM. Besides, the “IC50 TRPV1” value at human TRPV1 [4] is on record as “sub/low micromolar range”. Further, the “TRPV1 Efficacy (% IM 4 μM)” value at human TRPV1 [4] is given as 44.7 ± 0.02%. At rat TRPV2, the “TRPV2 Efficacy (% IM 4 μM)” value was 40.5 ± 1.6%. In addition, the “TRPV3 Efficacy (% IM 4 μM)” value on rat TRPV3 is on record as 50.1 ± 4.8%. The values for the EC50 at rat TRPV3 (read-out: TRPV3 Potency EC50) and on rat TRPV4 were 3700 nM and 800 nM, respectively. Further, the “TRPV4 Efficacy (% IM 4 μM)” value on rat TRPV4 is reported as 16.7 ± 1.0%.
